Entries after “also recorded” stand apart in the source; their conditions may differ.
Tests used:
[1] = Phase III study (SPARTAN, Study 1): safety; type: in vivo, human
From the text: SPARTAN, a randomized (2:1), double-blind, placebo-controlled, multi-center clinical study, enrolled patients who had non-metastatic, castration-resistant prostate cancer (NM-CRPC).

[2] = target: T1, organic anion transporter 1 (OAT1) (Homo sapiens, UniProt Q4U2R8); test: In vitro transporter inhibition: OAT1
T1 sequence (Q4U2R8 1-563): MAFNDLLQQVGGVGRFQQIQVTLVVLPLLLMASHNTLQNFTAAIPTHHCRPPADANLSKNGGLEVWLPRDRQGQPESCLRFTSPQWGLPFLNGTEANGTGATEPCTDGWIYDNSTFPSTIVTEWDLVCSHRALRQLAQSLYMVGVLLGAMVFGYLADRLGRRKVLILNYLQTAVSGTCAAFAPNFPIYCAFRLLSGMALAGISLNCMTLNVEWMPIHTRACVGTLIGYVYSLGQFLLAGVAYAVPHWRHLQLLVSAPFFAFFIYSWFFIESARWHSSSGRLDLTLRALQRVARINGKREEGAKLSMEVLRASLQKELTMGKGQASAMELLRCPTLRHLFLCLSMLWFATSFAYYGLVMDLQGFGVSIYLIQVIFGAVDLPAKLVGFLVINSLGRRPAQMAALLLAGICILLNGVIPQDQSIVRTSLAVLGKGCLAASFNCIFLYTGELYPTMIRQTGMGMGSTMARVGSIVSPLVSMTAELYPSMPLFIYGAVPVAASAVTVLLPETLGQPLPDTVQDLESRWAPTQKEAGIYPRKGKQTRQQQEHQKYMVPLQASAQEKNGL

## CNC(=O)c1ccc(N2C(=S)N(c3cnc(C#N)c(C(F)(F)F)c3)C(=O)C23CCC3)cc1F [apalutamide, 4-[7-(6-cyano-5-trifluoromethylpyridin-3-yl)-8-oxo-6-thioxo-5,7-diazaspiro[3.4]oct-5-yl]-2-fluoro-N-methylbenzamide]
[1]; All Grades
  Arthralgia: 15.9%
  Fall: 15.6%
  Fracture (grouped term): 11.7%
  Hypercholesterolemia: 6.1%
  Hypertriglyceridemia: 3.5%
  Hypothyroidism (grouped term): 8.1%
  Pruritus: 6.2%
  Seizure: 0.2%
  Skin rash (grouped term): 24%
  Weight decreased: 16.1%
[1]; All Grades, N = 803
  Fatigue: 30.4%
[1]; All Grades, listed as Apalutamide
  Skin rash (grouped term): 23.8%
[1]; Grade 3-4
  Arthralgia: 0%
  Fall: 1.7%
  Fatigue: 0.9%
  Fracture (grouped term): 2.7%
  Hypercholesterolemia: 0%
  Hypertriglyceridemia: 0.6%
  Hypothyroidism (grouped term): 0%
  Pruritus: 0.2%
  Seizure: 0%
  Skin rash (grouped term): 5.2%
  Weight decreased: 1.1%
[1]; days of treatment
  onset of skin rash, median: 82 days
[1]; in vivo
  Grade 3 skin rashes (covering >30% body surface area): 5.2%
  Hypothyroidism in patients already receiving thyroid replacement therapy: 28%
  Hypothyroidism in patients not receiving thyroid replacement therapy: 5.7%
  discontinuations due to adverse events: 11%
  dose interruption among patients with skin rash: 28%
  dose reduction among patients with skin rash: 12%
  dose reduction, reason "other": 9.7%
  dose reduction, reason adverse event: 11%
  patients whose skin rash resolved: 81%
  recurrence of skin rash in patients who were re-challenged: approximately half
  subjects receiving no dose modifications: 79%
  subjects with 2 dose interruptions: 6.6%
  subjects with dose interruptions due to TEAEs: 34%
  subjects with dose reductions: 21%
  subjects with one dose interruption: 22%
  subjects with one dose reduction: 8.2%
  subjects with two dose reductions: 13%
  time to resolution of rash from onset, median: 60 days
  treatment discontinuation among patients who experienced skin rash: 9%
[2]
  inhibition of OAT1: No in vitro inhibition; also recorded: do not inhibit

Source: patent publication US11160796B2, “Anti-androgens for the treatment of non-metastatic castration-resistant prostate cancer” (priority 2017, dated 2021)
